Drawing on EP4624472A1, “DEGRADER INCLUDING NOVEL C-MET PROTEIN LIGAND AND PHARMACEUTICAL COMPOSITION INCLUDING SAME” (Innocure Therapeutics, Inc., priority 2022, dated 2024), this text covers IC50 for 20 molecules.

Where two headings read alike, the source gives them in different places.

By IC50 is commonly meant the concentration at which inhibition is half-maximal.

One test has as its system SNU-638. Nature of the test: In vitro cell viability assay (cancer cell anti-proliferative activity), SNU-638. As to conditions: SNU-638 cells, treated 72 hours, absorbance at 450 nm, read-out: In vitro cell viability assay (IC50, nM) SNU-638. In kind it is cell-based, human. The method, then: (§1) The c-MET overexpressing human gastric cancer cell lines MKN45 and SNU638 were cultured in RPMI medium with 10% fetal bovine serum, penicillin (100 U/ml), and streptomycin ([…]), and the c-MET exon 14 skipping mutant human gastric cancer cell line Hs746T was cultured in DMEM media. The c-MET overexpressing human lung cancer cell line EBC-1 was cultured in MEM media with the addition of 10% fetal bovine serum, penicillin (100U/ml), and streptomycin ([…]). The normal cell line WI-38 derived from human lung tissue was cultured in EMEM medium with the addition of 10% fetal bovine serum, penicillin (100U/ml), and streptomycin ([…]).
(§2) The compound synthesized in accordance with the present invention was prepared with a raw material solution of 10 mM dissolved in DMSO (dimethyl sulfoxide), and was sequentially diluted and processed.
(§3) In order to evaluate the inhibitory activity on cell growth, cells were dispensed in a 96-well plate at a concentration of 5,000 cells/well and then treated with the compound of the present invention prepared at various concentrations for 72 hours. The absorbance measurement at 450 nm was calculated using the GraphicPad Prism 8.0 software. The IC50 value (concentration of the compound achieving 50% cytostatic inhibition) is the average value of the measured results. […]

Another test relates to EBC-1. Briefly: In vitro cell viability assay (cancer cell anti-proliferative activity), EBC-1. In kind it is cell-based, human. As to conditions: EBC-1 cells, treated 72 hours, absorbance at 450 nm, read-out: In vitro cell viability assay (IC50, nM) EBC-1. The method, then: as §1, §2, §3

Regarding `Cn1cc(-c2cnc3c(nnn3C[C@@H]3CN(c4ncc(N5CC(CO)C5)cn4)CCO3)n2)cn1` [Example B-7, (S)-(1-(2-(2-((5-(1-methyl-1H-pyrazole-4-yl)-1H-[1,2,3]triazolo[4,5-b]pyrazine-1-yl)methyl)morpholino)pyrimidine-5-il)azetidine-3-yl)methanol], the IC50 with SNU-638 (Homo sapiens) and with EBC-1 (Homo sapiens) was no more than 100 nM each time.

In the case of `Cn1cc(-c2cnc3c(nnn3C[C@@H]3CN(c4ncc(N5CC(COCc6ccc(NC(=O)OC(C)(C)C)nc6)C5)cn4)CCO3)n2)cn1` [Example B-13], the IC50 in the test on SNU-638 (Homo sapiens) and in the test with EBC-1 (Homo sapiens) was no more than 1000 nM each time.

Regarding `N#Cc1cccc(-c2ccc(=O)n(Cc3cccc(-c4ncc(OCCN5CCNCC5)cn4)c3)n2)c1` [Example C-4, 3-(6-oxo-1-(3-(5-(2-(piperazine-1-yl)ethoxy)pyrimidine-2-yl)benzyl)-1,6-dihydropyridazine-3-yl)benzonitrile], the IC50 with SNU-638 (Homo sapiens) and with EBC-1 (Homo sapiens) was no more than 100 nM in each case.

For the molecule `N#Cc1cccc(-c2ccc(=O)n(Cc3cccc(-c4ncc(OC[C@@H]5CNCCO5)cn4)c3)n2)c1` [Example C-2, (S)-3-(1-(3-(5-(morpholine-2-ylmethoxy)pyrimidine-2-yl)benzyl)-6-oxo-1,6-dihydropyridazine-3-yl)benzonitrile], the IC50 with SNU-638 (Homo sapiens) and in the test with EBC-1 (Homo sapiens) was no more than 100 nM each time.

Consider `Cn1cc(-c2cnc3c(nnn3C[C@@H]3CN(c4ncc(N5CC(CN6CCNCC6)C5)cn4)CCO3)n2)cn1` [Example B-5, (S)-2-((5-(1-methyl-1H-pyrazole-4-yl)-1H-[1,2,3]triazolo[4,5-b]pyrazine-1-yl)methyl)-4-(5-(3-(piperazine-1-ylmethyl)azetidine-1-il)pyrimidine-2-yl)morpholine], for which the IC50 with SNU-638 (Homo sapiens) and in the test on EBC-1 (Homo sapiens) was no more than 100 nM in each case.

On to “3-(6-oxo-1-(3-(5-(piperazine-1-yl)pyrimidine-2-yl)benzyl)-1,6-dihydropyridazine-3-yl)benzonitrile [Example C-6]”, for which the IC50 in the test with SNU-638 and with EBC-1 was no more than 100 nM throughout.

As for `COc1ccc(COCC2CN(c3cnc(N4CCO[C@H](Cn5nnc6nc(-c7cnn(C)c7)cnc65)C4)nc3)C2)cc1` [Example B-11, (S)-4-(5-(3-(((4-methoxybenzyl)oxy)methyl)azetidine-1-il)pyrimidine-2-yl)-2-((5-(1-methyl-1H-pyrazole-4-yl)-1H-[1,2,3]triazolo[4,5-b]pyrazine-1-yl)methyl)morpholine], the IC50 in the test with SNU-638 (Homo sapiens) and in the test on EBC-1 (Homo sapiens) was no more than 100 nM throughout.

Consider `Cn1cc(-c2cnc3c(nnn3C[C@@H]3CN(c4ncc(N5CC(CN6CCN(C(=O)OCc7ccccc7)CC6)C5)cn4)CCO3)n2)cn1` [Example B-4], for which the IC50 in the test on SNU-638 (Homo sapiens) and with EBC-1 (Homo sapiens) was no more than 100 nM in each case.

Turning to `Cn1cc(-c2cnc3c(nnn3C[C@@H]3CN(c4ncc(N5CCN(CC6CNC6)CC5)cn4)CCO3)n2)cn1` [Example B-2], the IC50 in the test with SNU-638 (Homo sapiens) and with EBC-1 (Homo sapiens) was no more than 100 nM throughout.

As for `Cc1ccc(S(=O)(=O)OCC2CN(c3cnc(N4CCO[C@H](Cn5nnc6nc(-c7cnn(C)c7)cnc65)C4)nc3)C2)cc1` [Example B-8, (S)-(1-(2-(2-((5-(1-methyl-1H-pyrazole-4-yl)-1H-[1,2,3]triazolo[4,5-b]pyrazine-1-yl)methyl)morpholino)pyrimidine-5-il)azetidine-3-yl)methyl 4-methylbenzenesulfonate], the IC50 in the test on SNU-638 (Homo sapiens) and in the test with EBC-1 (Homo sapiens) was no more than 100 nM throughout.

Regarding `CC(C)(C)OC(=O)N1CCN(c2cnc(-c3cccc(Cn4nc(-c5cccc(C#N)c5)ccc4=O)c3)nc2)CC1` [Example C-5], the IC50 in the test on SNU-638 and in the test with EBC-1 was no more than 100 nM throughout.

As to `Cn1cc(-c2cnc3c(nnn3C[C@@H]3CN(c4ncc(N5CC(COCc6ccccc6)C5)cn4)CCO3)n2)cn1` [Example B-6, (S)-4-(5-(3-((benzyloxy)methyl)azetidine-1-il)pyrimidine-2-yl)-2-((5-(1-methyl-1H-pyrazole-4-yl)-1H-[1,2,3]triazolo[4,5-b]pyrazine-1-yl)methyl)morpholine], the IC50 with SNU-638 (Homo sapiens) and in the test with EBC-1 (Homo sapiens) was no more than 100 nM in each case.

With `CN1CCN(Cc2ccc(-c3cnc(N4CCO[C@H](Cn5nnc6nc(-c7cnn(C)c7)cnc65)C4)nc3)cc2)CC1` [ABN401, reference compound], the IC50 in the test on SNU-638 (Homo sapiens) and with EBC-1 (Homo sapiens) was no more than 100 nM throughout.

With `Cn1cc(-c2cnc3c(nnn3C[C@@H]3CN(c4ncc(N5CCN(CC6CN(C(=O)OC(C)(C)C)C6)CC5)cn4)CCO3)n2)cn1` [Example B-1, tert-butyl(S)-3-((4-(2-(2-((5-(1-methyl-1H-pyrazole-4-yl)-1H-[1,2,3]triazolo[4,5-b]pyrazine-1-yl)methyl)morpholino)pyrimidine-5-il)ppiperazine-1-il)methyl)azetidine-1-carboxylate], the IC50 in the test with SNU-638 (Homo sapiens) and in the test with EBC-1 (Homo sapiens) was no more than 100 nM in each case.

Turning to `CC(C)(C)OC(=O)N1CCN(CCOc2cnc(-c3cccc(Cn4nc(-c5cccc(C#N)c5)ccc4=O)c3)nc2)CC1` [Example C-3], the IC50 in the test on SNU-638 (Homo sapiens) and with EBC-1 (Homo sapiens) was no more than 100 nM throughout.

Consider `CC(C)(C)OC(=O)Nc1ccc(COCC2CN(c3cnc(N4CCO[C@H](Cn5nnc6nc(-c7cn[nH]c7)cnc65)C4)nc3)C2)cc1` [Example B-12, tert-butyl(S)-(4-(((1-(2-(2-((5-(1H-pyrazole-4-yl)-1H-[1,2,3]triazolo[4,5-b]pyrazine-1-yl)methyl)morpholino)pyrimidine-5-il)azetidine-3-il)methoxy)methyl)phenyl)carbamate], for which the IC50 in the test with SNU-638 and with EBC-1 was no more than 1000 nM each time.

As to `CC(C)(C)OC(=O)N1CCO[C@@H](COc2cnc(-c3cccc(Cn4nc(-c5cccc(C#N)c5)ccc4=O)c3)nc2)C1` [Example C-1, tert-butyl(2R)-2-(((2-(3-((3-(3-cyanophenyl)-6-oxopyridazin-1(6H)-yl)methyl)phenyl)pyrimidine-5-yl)oxy)methyl)methyl-4-carboxylate], the IC50 with SNU-638 (Homo sapiens) and in the test on EBC-1 (Homo sapiens) was no more than 100 nM each time.

With `CN1CCN(CC2CN(c3cnc(N4CCO[C@H](Cn5nnc6nc(-c7cnn(C)c7)cnc65)C4)nc3)C2)CC1` [Example B-10, (S)-2-((5-(1-methyl-1H-pyrazole-4-yl)-1H-[1,2,3]triazolo[4,5-b]pyrazin-1-yl)methyl)-4-(5-(3-((4-methylpiperazine-1-yl)methyl)azetidine-1-il)pyrimidine-2-yl)morpholine], the IC50 with SNU-638 (Homo sapiens) and with EBC-1 (Homo sapiens) was no more than 100 nM throughout.

As to `CN1CC(CN2CCN(c3cnc(N4CCO[C@H](Cn5nnc6nc(-c7cnn(C)c7)cnc65)C4)nc3)CC2)C1` [Example B-3, (S)-2-((5-(1-methyl-1H-pyrazole-4-yl)-1H-[1,2,3]triazolo[4,5-b]pyrazine-1-yl)methyl)-4-(5-(4-((1-methylazetidine-3-yl)methyl)piperazine-1-il)pyrimidine-2-yl)morpholine], the IC50 in the test on SNU-638 (Homo sapiens) and with EBC-1 (Homo sapiens) was no more than 100 nM in each case.

Take `Cn1cc(-c2cnc3c(nnn3C[C@@H]3CN(c4ncc(N5CC(CN6CCN(C(=O)OC(C)(C)C)CC6)C5)cn4)CCO3)n2)cn1` [Example B-9]: the IC50 with SNU-638 (Homo sapiens) and with EBC-1 (Homo sapiens) was no more than 100 nM each time.
